Measurements from PMC4854767 (Clinical cancer research : an official journal of the …, 2016).
Read-outs that look alike come from different tables or passages of the source.

Tests used:
[1] = GDC-0941 plasma pharmacokinetics in mice
ZR75-1 cells = assay: Caspase-3/7-activatable luciferase reporter in ZR75-1 cells; assay type: cell-based, human; details: 1 µM fulv for 2 d before 1 µM GDC-0941 for 12 or 24 h, combination
[2] = GDC-0941 intratumor pharmacokinetics in mice bearing MCF-7 xenografts; assay type: in vivo; details: for time of peak intratumor concentration: fulv pretreatment
MCF-7 tumors [3] = assay: MCF-7 xenograft tumor volume study; assay type: in vivo, mice
MCF-7 tumors [4] = details: for peak apoptosis, tumor cells (TUNEL): in combination with fulv
MCF-7 cells [5] = assay: Sulforhodamine B; assay type: cell-based, human
MCF-7 cells [6] = assay: Caspase-3/7-activatable luciferase reporter in MCF-7 cells; assay type: cell-based, human; details: 1 µM fulv for 2 d before 1 µM GDC-0941 for 12, 24 or 36 h, combination
in vivo = details: NOD-scid/IL2Rγ−/− (NSG; NOD.Cg-Prkdcscid Il2rgtm1Wjl/SzJ), mouse, plasma, po, 800 mg/kg
[7] = tested on: chronic eosinophilic leukemia; details: weekly dosing; cited from earlier work
[8] = tested on: HCI-003 patient-derived breast cancer xenografts; assay: HCI-003 patient-derived xenograft tumor volume study; assay type: in vivo, mice; details: fulv alone; HCI-003 xenografts
[9] = low-dose (100 mg/kg), single dose

CS(=O)(=O)N1CCN(Cc2cc3nc(-c4cccc5[nH]ncc45)nc(N4CCOCC4)c3s2)CC1 [GDC-0941]
time until plasma concentration below the limit of detection ([1]; 100 mg/kg): ≤ 24 h
plasma concentration in plateau phase ([1]; 100 mg/kg, plateau after 1 h, maintained for 8 h): 6.8 to 10.7 µM
time until plasma concentration below detectable limits ([1]; 800 mg/kg): ≤ 72 h
plasma concentration in plateau phase ([1]; 800 mg/kg, plateau maintained through 24 h): 7.9 to 15 µM
caspase-3/7 reporter activity (ZR75-1 cells): increased caspase-3/7 reporter activity compared to either agent alone
time until intratumor concentration below the detectable limit ([2]; high-dose (800 mg/kg)): ≤ 72 h
time of peak intratumor concentration ([2]; high-dose (800 mg/kg)): 9 h
time at which drug was undetectable in tumor ([2]; low-dose (100 mg/kg) with a second dose at 12 h): 36 h
time at which drug was undetectable in tumor [2, 9]: 18 h
time of peak intratumor concentration [2, 9]: 9 h
time of peak intratumor concentration ([2]; two low-dose treatments (100 mg/kg at 0 and 12 h)): 21 h
tumor response (MCF-7 tumors [3]; combination of fulv and GDC-0941, regardless of dose/schedule, MCF-7 tumors): near-complete tumor regression in most cases
body weight (MCF-7 tumors [3]; single-agent GDC-0941, different doses/schedules): without notable loss of body weight
tumor growth (MCF-7 tumors [3]; single-agent GDC-0941, different doses/schedules, MCF-7 tumors 500–1,000 mm^3): only slowed tumor growth
maintained apoptosis (TUNEL) (MCF-7 tumors [4]; fulv plus bi-daily low-dose GDC-0941 (3 d on, 4 d off), until 72 h): ~ 10%
apoptosis (TUNEL) (MCF-7 tumors [4]; fulv plus daily low-dose GDC-0941, maintained for 72 h): 8–10%
peak apoptosis, tumor cells (TUNEL) (MCF-7 tumors [4]; one low dose (100 mg/kg) GDC-0941, at 24 h): 6.7%
peak apoptosis, tumor cells (TUNEL) (MCF-7 tumors [4]; single high-dose (800 mg/kg) GDC-0941, at 48 h): 30.1%
peak apoptosis, tumor cells (TUNEL) (MCF-7 tumors [4]; two low doses (100 mg/kg at 0 and 12 h) GDC-0941, at 24 h): 15.9%
duration of exposure required to appreciably decrease viability (MCF-7 cells [5]; MCF-7 cells, GDC-0941 ≤0.25 µM): ≥ 24 h
growth inhibition (MCF-7 cells [5]; MCF-7 cells, continuous exposure to 1–2 µM GDC-0941): near-complete growth inhibition
caspase-3/7 reporter activity (MCF-7 cells [6]): increased caspase-3/7 reporter activity compared to either agent alone
Tmax (in vivo): 15 to 30 min

Cc1ccc(NC(=O)c2ccc(CN3CCN(C)CC3)cc2)cc1Nc1nccc(-c2cccnc2)n1 [imatinib]
patients in whom recurrence was prevented [7]: 7/7

C[C@]12CC[C@@H]3c4ccc(O)cc4C[C@@H](CCCCCCCCC[S+]([O-])CCCC(F)(F)C(F)(F)F)[C@H]3[C@@H]1CC[C@@H]2O (stereo partly drawn) [fulv]
tumor growth [8]: did not affect tumor growth
tumor response (MCF-7 tumors [3]; fulv alone, larger MCF-7 tumors (500–1,000 mm^3)): generally unresponsive
growth of MCF-7 cells (MCF-7 cells [5]; single-agent fulv (1 µM)): effectively inhibited growth
